Measurements from patent US20060111305A1, “Metabolites of certain [1,4]diazepino[6,7,1-ij]quinoline derivatives and methods of preparation and use thereof” (Wyeth, priority 2004, published 2006).
Where two headings read alike, the source gives them in different places. Marks after values point to notes of the source that are not given here.

Tests used:
[1] = Incubation of [14C]DCDQ with mouse liver microsomes; format: in vitro ADME, CD-1 mice
Procedure: [^14C]DCDQ was mixed with non-radiolabeled DCDQ (1:3 or 1:5) in the incubations. Microsomal incubations consisted of [^14C]DCDQ, magnesium chloride (10 mM) and liver microsomes incubated in 0.5 mL of 0.1 M potassium phosphate buffer, pH 7.4. [^14C]DCDQ (20 μL) in water was added to the incubation tubes containing buffer, magnesium chloride solution and microsomes. After mixing, the tubes were pre-incubated for 2 minutes in a shaking water bath at 37° C. The reactions were initiated by the addition of UDPGA or the NADPH regenerating system. UDPGA was added to incubations as a 50 μL aliquot of a 20 mM solution in water, to give a final concentration of 2 mM. An NADPH regenerating system (30 μL) was added to incubations to evaluate CYP450-mediated metabolism. The NADPH regenerating system consisted of glucose-6-phosphate (2 mg/mL), glucose-6-phosphate dehydrogenase (0.8 units/mL) and NADP^+ (2 mg/mL). Control incubations were conducted under the same conditions, but without the NADPH generating system, UDPGA or microsomes. All incubations were performed in duplicate. Incubations were stopped by the addition of 0.5 mL ice-cold methanol. Samples were vortex-mixed. Denatured proteins were separated by centrifugation at 4300 rpm and 4° C. for 10 minutes (Model T21 super centrifuge, Sorvall). The protein pellets were extracted with 0.5 mL of methanol. The supernatant was combined for each sample, mixed and evaporated to a volume of about 0.3 mL under a nitrogen stream in a Zymark TurboVap LV evaporator (Caliper Life Science, Hopkinton, Mass.). The concentrated sample was centrifuged and aliquots were radioassayed and analyzed by HPLC. This method recovered an average of 92.1% of the radioactivity from the reaction mixture.
To evaluate species differences in cytochrome P450- and UGT-mediated metabolism, [^14C]DCDQ was incubated for 20 minutes with 0.5 mg/mL liver microsomal proteins from mice, rats, dogs or humans in the presence of the NADPH regenerating system or UDPGA. The assay conditions were the same as described above, and DCDQ concentrations were 12 μM and 56 μM for cytochrome P450- and UGT-mediated metabolism, respectively.
A Waters model 2690 HPLC system (Waters Corp., Milford, Mass.) with a built-in autosampler was used for analysis. Separations were accomplished on a Phenomenex Luna C18(2) column (2×150 mm, 5 μm) (Phenomenex, Torrance, Calif.) coupled with a filter (4×2 mm) cartridge. A variable wavelength UV detector set to monitor 250 nm and Flo-One β Model A525 radioactivity flow detector (Perkin Elmer) with a 250 μL LQTR flow cell were used for data acquisition. The flow rate of Ultima Flow M scintillation fluid was 1 mL/min, providing a mixing ratio of scintillation cocktail to mobile phase of 5:1. […]

[2] = Metabolites of DCDQ identified in dogs by LC/MS analysis (Table 26); format: in vivo, beagle dogs; settings: P = plasma, U = urine, B = brain, F = feces
From the text: An Agilent Model 1100 HPLC system (Agilent Technologies, Palo Alto, Calif.) including an autosampler and diode array UV detector was used for LC/MS analysis. The UV detector was set to monitor 200 to 400 nm. For selected LC/MS analysis, radiochromatograms were acquired using a β-Ram model 3 radioactivity flow detector (IN/US Systems Inc., Tampa, Fla.) equipped with a solid scintillant flow cell. LC conditions were the same as the condition B described above.
The mass spectrometer used for metabolite characterization was a Micromass Q-TOF-2 quadrupole time-of-flight hybrid mass spectrometer (Waters). The mass spectrometer was equipped with an electrospray ionization (ESI) interface and operated in the positive ionization mode. Collision energy settings of 5 and 30 eV were used for full MS and MS/MS scans, respectively. Settings for the mass spectrometer are listed below.

[3] = Rat plasma metabolite profiles after single oral 5 mg/kg [14C]DCDQ; format: in vivo, Sprague-Dawley rats; settings: for concentration at 2 h / concentration at 8 h / concentration at 4 h: Sprague-Dawley, rat, plasma, mean n = 3, read-out: Estimated plasma concentration in rats
Procedure: Plasma samples were analyzed for metabolite profiles by HPLC. Aliquots of 1.5 mL plasma were mixed with 3.0 mL methanol, placed on ice for about 10 minutes, and then centrifuged. The supernatant was transferred to a clean tube. The protein pellets were extracted once with 3.0 mL methanol. The supernatants from precipitation and extraction of each sample were pooled, mixed, and evaporated at 22° C. under nitrogen in a Zymark TurboVap LV (Caliper Life Sciences, Hopkinton, Mass.) to about 0.3 mL. The concentrated extract was centrifuged, the supernatant volume measured and extraction efficiency was determined by analyzing duplicate 10 μL aliquots for radioactivity. An aliquot of the supernatant (50-200 μL) was analyzed by HPLC with radioactivity flow detection. Plasma extracts were also analyzed by LC/MS.
A Waters model 2690 HPLC system (Waters Corp., Milford, Mass.) with a built-in autosampler was used for analysis. Separations were accomplished on a Phenomenex Luna C18(2) column (150×2.0 mm, 5 μm) (Phenomenex, Torrance, Calif.). The sample chamber of the autosampler was maintained at 4° C., while the column was at ambient temperature of about 20° C. A variable wavelength UV detector set to monitor 250 nm and a Flo-One β Model A525 radioactivity detector described above were used for data acquisition. The HPLC mobile phase consisted of 10 mM ammonium acetate, pH 4.5 (A) and methanol (B), and was delivered at 0.2 mL/min. Chromatographic condition A was used for dose analysis, while condition B was used for analysis of urine and plasma, brain and fecal extracts.

[4] = NADPH regenerating system, 12 μM DCDQ, 20 min

Row | SMILES | metabolite detected in microsomal incubation ([1]; UDPGA, 56 μM DCDQ) | Matrix [2] | metabolite detected in microsomal incubation [1, 4] | concentration at 2 h ([3]; female, 2 hr) | concentration at 8 h ([3]; female, 8 hr) | concentration at 2 h ([3]; male, 2 hr) | concentration at 4 h ([3]; male, 4 hr) | concentration at 8 h ([3]; male, 8 hr) | Chromatographic distribution of radioactivity in rat plasma ([3]; female, 2 hr, mean n = 3) | Chromatographic distribution of radioactivity in rat plasma ([3]; female, 8 hr, mean n = 3) | Chromatographic distribution of radioactivity in rat plasma ([3]; male, 2 hr, mean n = 3) | Chromatographic distribution of radioactivity in rat plasma ([3]; male, 4 hr, mean n = 3) | Chromatographic distribution of radioactivity in rat plasma ([3]; male, 8 hr, mean n = 3) | Estimated plasma concentration in rats ([3]; female, 2 hr, mean n = 3)
1 | O=C(O)[C@H]1O[C@@H](OC(=O)N2CCN3C[C@@H]4CCC[C@@H]4c4cccc(c43)C2)[C@H](O)[C@@H](O)[C@@H]1O [Metabolite M6, carbamoyl glucuronide of DCDQ] | not mouse or rat | P, U |  |  |  |  |  |  |  |  |  |  |  | 
2 | O=C1CC[C@@H]2c3cccc4c3N(CCNC4)C[C@H]12 [Metabolite M7, 17-keto DCDQ] |  | P, U |  | 0.0356 µg/mL | 0.0175 µg/mL | 0.0636 µg/mL | 0.0621 µg/mL | 0.053 µg/mL | 5.4^d % | 5.6% | 10% | 9.4% | 12% | 
3 | c1cc2c3c(c1)[C@H]1CCC[C@H]1CN3CCNC2 [DCDQ, (9aR,12aS)-4,5,6,7,9,9a,10,11,12,12a-decahydro-cyclopenta[c][1,4]diazepine[6,7,1-ij]quinoline, reference compound] |  | P, U, F |  | 0.132 µg/mL | 0.0494 µg/mL | 0.0869 µg/mL | 0.0908 µg/mL | 0.0587 µg/mL | 20% | 15% | 14% | 14% | 13% | 
4 | OC1[C@@H]2CCC[C@@H]2c2cccc3c2N1CCNC3 (stereo partly shown) [Metabolite M2, hydroxy DCDQ] |  | P, U, F | only metabolite detected |  | 0.0044 µg/mL | 0.0323 µg/mL | 0.0226 µg/mL | 0.02 µg/mL | BQL | 1.5^e % | 5.2% | 3.4% | 4.3% | BQL

Second part, the molecule after the results:

Row | metabolite detected in microsomal incubation ([1]; UDPGA, 56 μM DCDQ) | Matrix [2] | metabolite detected in microsomal incubation [1, 4] | concentration at 2 h ([3]; female, 2 hr) | concentration at 8 h ([3]; female, 8 hr) | concentration at 2 h ([3]; male, 2 hr) | concentration at 4 h ([3]; male, 4 hr) | concentration at 8 h ([3]; male, 8 hr) | Chromatographic distribution of radioactivity in rat plasma ([3]; female, 2 hr, mean n = 3) | Chromatographic distribution of radioactivity in rat plasma ([3]; female, 8 hr, mean n = 3) | Chromatographic distribution of radioactivity in rat plasma ([3]; male, 2 hr, mean n = 3) | Chromatographic distribution of radioactivity in rat plasma ([3]; male, 4 hr, mean n = 3) | Chromatographic distribution of radioactivity in rat plasma ([3]; male, 8 hr, mean n = 3) | Estimated plasma concentration in rats ([3]; female, 2 hr, mean n = 3) | SMILES
5 |  | P, U | not detected | 0.0126 µg/mL | 0.00652 µg/mL | 0.0884 µg/mL | 0.0597 µg/mL | 0.0419 µg/mL | 2.0^d % | 1.9^d % | 14% | 9.1% | 8.9% |  | OC1CN2C[C@@H]3CCC[C@@H]3c3cccc(c32)CN1 (stereo partly shown) [Metabolite M1, hydroxy DCDQ]
6 |  |  | not mouse or rat |  |  |  |  |  |  |  |  |  |  |  | [O-][N+]12CCN=Cc3cccc(c31)[C@H]1CCC[C@H]1C2 (stereo partly shown) [Metabolite M5, DCDQ imine N-oxide]
